Assay in all cases: NCI-60 cell line screen, 48 h
In assay [1] the test system is HT29 colon.
Assay [2] relates to LOX IMVI melanoma.
In assay [3] the test system is KM12 colon.
Assay [4] relates to UACC-257 melanoma.
The test system of assay [5] is OVCAR-3 ovarian.
Assay [6] concerns COLO 205 colon.
The subject of assay [7] is NCI-H226 lung.
The test system of assay [8] is HCC-2998 colon.
Assay [9] relates to RXF 393 renal.
Assay [10] has as its system SR leukemia.
The test system of assay [11] is BT-549 breast.

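Dose response: 5 concentrations. Exposure: 48 h. Format: 96-well plates. Endpoint: linear interpolation; highest concentration if not reached. The concentration for 50% growth inhibition is given as GI50. TGI: total growth inhibition.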 Where only a bound is given, the exact number is not on record here.

Turning to `Oc1ccc(C#CCOc2ccccc2)cc1CNCCN(Cc1ccccn1)Cc1ccccn1`, the GI50 was 2.54 µM in assay [1]; 1.25 µM in assay [2]; 1.28 µM in assay [3]; 2.55 µM in [4]; 1.47 µM in assay [5]; 2.8 µM in assay [6]. In addition, the GI50 in [7] is 1.34 µM; in assay [8] it was 1.65 µM; in assay [9] it was 1.49 µM. Also, the TGI in [1] stood at 12.6 µM; in [2], 2.79 µM; in assay [3] it was 2.91 µM; in assay [4], 6.83 µM; in assay [5] it was 3.04 µM; in assay [6] it was 9.74 µM. Moreover, the values for the TGI in [7], in assay [8] and in assay [9] were 3.1 µM, 3.36 µM and 2.96 µM, respectively.

`C[C@]1(O)O[C@@H]2OCC[C@@H]2C2=C1C(=O)c1ccccc1C2=O`: the TGI is more than 100 µM in [1]; 25.2 µM in [2]; 29.8 µM in [3]; 31 µM in assay [4]; 45.5 µM in assay [10]; 22.3 µM in [5]. Besides, the TGI came out at 53.9 µM in assay [6], 40.6 µM in assay [8] and 27.2 µM in [9].

Turning to `CC(NC(C#N)CC12CC3CC(CC(C3)C1)C2)c1ccccc1` (configuration not stated), the TGI in assay [1] is more than 100 µM; in assay [2], 62.7 µM; in [4], more than 100 µM; in assay [10] it was more than 100 µM; in assay [5], 71.9 µM; in assay [6], more than 100 µM. In assay [8], the TGI was more than 100 µM.

For the compound `CC(=O)/C=C(\O)c1[nH]c(C(=O)O)cc1C1CCN(Cc2ccccc2)C1=O` (configuration not stated), the TGI in assay [1] is 89 µM; in assay [3], more than 100 µM; in [4] it was 53.7 µM; in [5] it was 54.9 µM; in assay [6], 42.9 µM; in [8] it was 46.4 µM. The TGI in [11] turned out to be 58.1 µM; in assay [9], 30.2 µM.

For the compound `CC(=O)OCC1OC(O/C=C(\CN=[N+]=[N-])C(C)=O)C(OC(C)=O)C(OC(C)=O)C1OC(C)=O` (configuration not stated), the TGI is 27.2 µM in assay [1]; 17.1 µM in [2]; 40.3 µM in assay [3]; 17.1 µM in [4]; 7.69 µM in assay [10]; 28.7 µM in assay [5]. The TGI in assay [6] is 3.9 µM; in assay [8], 35 µM; in [11], 31.2 µM.

In the case of `CC(C)C(=O)/C=C/c1ccc(Cl)c(Cl)c1`, the TGI in [1] came to 43.8 µM; in assay [3] it was 29 µM; in assay [4], 45.1 µM; in [10], 56.8 µM; in [5], 27.6 µM; in assay [6], 52.3 µM. Moreover, the TGI in assay [8] came out at 33.2 µM; in assay [9] it was 33.5 µM.

`O=C1c2ccccc2C(=O)c2c(O)ccc(O)c21`: the TGI in assay [1] is more than 100 µM; in [2], more than 100 µM; in [3], more than 100 µM; in assay [4], more than 100 µM; in assay [5], 94.1 µM; in assay [6], more than 100 µM. The TGI in assay [8] and in [9] was more than 100 µM each time.

Consider `COc1cc(C2c3cc4c(cc3[C@@H](Nc3cccc([N+](=O)[O-])c3)C3COC(=O)[C@H]23)OCO4)cc(OC)c1O` (some centres not stated), for which the TGI in assay [1] was 13.1 µM; in assay [2], 19.6 µM; in assay [3] it was 16.9 µM; in assay [4], 35.2 µM; in [5], 33.2 µM; in assay [6], 18.1 µM. Further, the TGI turned out to be 7.94 µM in assay [7], 6.41 µM in [8] and 7.41 µM in assay [9].

Turning to `NC(=O)CC(N=C1C(=O)OC(C(O)CO)C1=NC(CC(N)=O)C(=O)O)C(=O)O` (configuration not stated), the TGI in assay [1], in [3], in assay [4], in assay [10], in assay [6] and in assay [7] was more than 100 µM throughout. For the same compound, the TGI in [8] and in assay [9] was more than 100 µM in each case.

For `N#Cc1nc(CCC(c2nc(C#N)c(N)o2)N2C(=O)c3ccccc3C2=O)oc1N` (configuration not stated), the TGI in assay [1], in [2], in [3], in assay [4], in assay [10] and in assay [5] was more than 100 µM in each case. Besides, the TGI in assay [6], in assay [7], in assay [8] and in assay [9] was more than 100 µM in each case.

With `Clc1ncc(Cl)c(Cl)n1`, the TGI in assay [1] is 3.02 µM; in assay [2], 3.22 µM; in [3] it was 22.9 µM; in assay [4] it was 14.3 µM; in assay [10] it was 5.62 µM; in assay [5] it was 14.3 µM. Also, the TGI in assay [6] came to 3.3 µM; in [7], 19 µM; in [8] it was 15.1 µM; in [9] it was 5.46 µM.

`CS(=O)(=O)OCCCOS(C)(=O)=O`: the TGI in assay [1], in assay [2], in [3], in assay [4], in [10] and in assay [5] was more than 100 µM each time. The TGI in assay [6], in assay [7], in assay [8] and in assay [9] was more than 100 µM throughout.

For the compound `CC[C@@]12C=CC(=S)N(CCSc3ccccc3)[C@@H]1c1c(n(S(=O)(=O)c3ccc(OC)cc3)c3ccccc13)CC2`, the TGI in [1], in assay [2], in assay [3], in [4], in assay [5] and in assay [6] was more than 100 µM each time. Further, the TGI in assay [8], in [11] and in assay [9] was more than 100 µM in each case.

In the case of `COc1ccc(/C=N/NC(=O)c2cnc3[nH]c(=O)n(C)c(=O)c3c2)cc1`, the TGI in assay [1], in assay [3], in assay [4], in assay [5], in [6] and in [7] was more than 100 µM in each case. The TGI in [8], in [11] and in [9] was more than 100 µM in each case.

The values above are taken from PubChem BioAssay (NCI).
